# Results: patent US20240132431A1, “METHOD FOR ALKYLATING ACIDIC FUNCTIONAL GROUP” (Chugai Seiyaku Kabushiki Kaisha, priority 2021, published 2024)
# Target: T1, Bcl-2 protein (Recombinant Human Bcl-2 Protein) (Homo sapiens, UniProt P10415)
# T1 construct: purchased Novus NBP2-34889
# Assay: Binding evaluation of mixture library compounds to Bcl-2 using AS-MS (affinity selection mass spectrometry)
# Details: AS-MS on the mixture of 1200 library compounds, ASMS Ratio(%)=(A−C)/B×100; for ASMS ratio (%) n = 1: replicate n = 1; for ASMS ratio (%) n = 2: replicate n = 2
# In short: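 Affinity selection MS: Bcl-2 20 μM + 1200-cpd mixture, […]/cpd, Tris pH 7.4 buffer w/ Tween-20, DTT; 1 h 23° C dark; P-2 spin SEC; MeCN/MeOH extraction; RP LC/MS. ASMS Ratio(%) = (A−C)/B×100.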
# T1 sequence (P10415 whole entry): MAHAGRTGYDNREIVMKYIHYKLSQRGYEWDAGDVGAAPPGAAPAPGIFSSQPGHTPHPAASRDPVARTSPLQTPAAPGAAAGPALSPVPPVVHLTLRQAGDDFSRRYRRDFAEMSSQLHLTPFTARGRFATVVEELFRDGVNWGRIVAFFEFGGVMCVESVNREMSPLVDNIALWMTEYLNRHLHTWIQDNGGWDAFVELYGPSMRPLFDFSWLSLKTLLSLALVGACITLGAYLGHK
SMILES,ASMS ratio (%) n = 1,ASMS ratio (%) n = 2
"CCOc1cncc(-c2ccc(CN3CCN(c4ccc(C(=O)N(C)CC56CC7CC(CC(C7)C5)C6)cc4)CC3)c3ccccc23)c1 [B3A066-01, N-(1-Adamantylmethyl)-4-[4-[[4-(5-ethoxypyridin-3-yl)naphthalen-1-yl]methyl]piperazin-1-yl]-N-methylbenzamide]",6.3%,−2.9%
"CCOc1cccc(-c2csc(CN3CCN(c4ccc(C(=O)N(C)CC56CC7CC(CC(C7)C5)C6)cc4)CC3)c2)c1 [B3A067-01, N-(1-Adamantylmethyl)-4-[4-[[4-(3-ethoxyphenyl)thiophen-2-yl]methyl]piperazin-1-yl]-N-methylbenzamide]",−7.3%,4.0%
"CCOc1cncc(-c2csc(CN3CCN(c4ccc(C(=O)N(C)CC56CC7CC(CC(C7)C5)C6)cc4)CC3)c2)c1 [B3A068-01, N-(1-Adamantylmethyl)-4-[4-[[4-(5-ethoxypyridin-3-yl)thiophen-2-yl]methyl]piperazin-1-yl]-N-methylbenzamide]",1.4%,−3.6%
"CCOc1cccc(C#Cc2ccccc2CN2CCN(c3ccc(C(=O)N(C)CC45CC6CC(CC(C6)C4)C5)cc3)CC2)c1 [B3A069-01, N-(1-Adamantylmethyl)-4-[4-[[2-[2-(3-ethoxyphenyl)ethynyl]phenyl]methyl]piperazin-1-yl]-N-methylbenzamide]",,12872.1%
"CCOc1cncc(C#Cc2ccccc2CN2CCN(c3ccc(C(=O)N(C)CC45CC6CC(CC(C6)C4)C5)cc3)CC2)c1 [B3A070-01, N-(1-Adamantylmethyl)-4-[4-[[2-[2-(5-ethoxypyridin-3-yl)ethynyl]phenyl]methyl]piperazin-1-yl]-N-methylbenzamide]",7.7%,−8.1%
"CCOc1cccc(-c2ccccc2CN2CCN(c3ccc(C(=O)N(C)CC45CC6CC(CC(C6)C4)C5)nn3)CC2)c1 [B3A071-01, N-(1-Adamantylmethyl)-6-[4-[[2-(3-ethoxyphenyl)phenyl]methyl]piperazin-1-yl]-N-methylpyridazine-3-carboxamide]",3.2%,−4.7%
"CCOc1cncc(-c2ccccc2CN2CCN(c3ccc(C(=O)N(C)CC45CC6CC(CC(C6)C4)C5)nn3)CC2)c1 [B3A072-01, N-(1-Adamantylmethyl)-6-[4-[[2-(5-ethoxypyridin-3-yl)phenyl]methyl]piperazin-1-yl]-N-methylpyridazine-3-carboxamide]",11.6%,3.1%
"CCOc1cncc(-c2ccc(CN3CCN(c4ccc(C(=O)N(C)CC56CC7CC(CC(C7)C5)C6)nn4)CC3)cc2C)c1 [B3A074-01, N-(1-Adamantylmethyl)-6-[4-[[4-(5-ethoxypyridin-3-yl)-3-methylphenyl]methyl]piperazin-1-yl]-N-methylpyridazine-3-carboxamide]",10.7%,−17.2%
"CCOc1cccc(-c2ccc(CN3CCN(c4ccc(C(=O)N(C)CC56CC7CC(CC(C7)C5)C6)nn4)CC3)c(CC)c2)c1 [B3A075-01, N-(1-Adamantylmethyl)-6-[4-[[4-(3-ethoxyphenyl)-2-ethylphenyl]methyl]piperazin-1-yl]-N-methylpyridazine-3-carboxamide]",−5.8%,−16.0%
"CCOc1cncc(-c2ccc(CN3CCN(c4ccc(C(=O)N(C)CC56CC7CC(CC(C7)C5)C6)nn4)CC3)c(CC)c2)c1 [B3A076-01, N-(1-Adamantylmethyl)-6-[4-[[4-(5-ethoxypyridin-3-yl)-2-ethylphenyl]methyl]piperazin-1-yl]-N-methylpyridazine-3-carboxamide]",6.5%,−0.9%
"CCOc1cccc(-c2ccc(CN3CCN(c4ccc(C(=O)N(C)CC56CC7CC(CC(C7)C5)C6)nn4)CC3)cc2F)c1 [B3A077-01, N-(1-Adamantylmethyl)-6-[4-[[4-(3-ethoxyphenyl)-3-fluorophenyl]methyl]piperazin-1-yl]-N-methylpyridazine-3-carboxamide]",4.1%,−2.8%
